Data on five compounds can be found in ChEMBL document CHEMBL1132817 (Bioorg Med Chem Lett, 2000).

Structures are written as SMILES.

By IC50 is commonly meant the midpoint of a concentration-inhibition curve.

Test [1] has as its target T1, M-phase inducer phosphatase 1 (Homo sapiens, UniProt P30304).
T1 sequence (P30304 whole entry): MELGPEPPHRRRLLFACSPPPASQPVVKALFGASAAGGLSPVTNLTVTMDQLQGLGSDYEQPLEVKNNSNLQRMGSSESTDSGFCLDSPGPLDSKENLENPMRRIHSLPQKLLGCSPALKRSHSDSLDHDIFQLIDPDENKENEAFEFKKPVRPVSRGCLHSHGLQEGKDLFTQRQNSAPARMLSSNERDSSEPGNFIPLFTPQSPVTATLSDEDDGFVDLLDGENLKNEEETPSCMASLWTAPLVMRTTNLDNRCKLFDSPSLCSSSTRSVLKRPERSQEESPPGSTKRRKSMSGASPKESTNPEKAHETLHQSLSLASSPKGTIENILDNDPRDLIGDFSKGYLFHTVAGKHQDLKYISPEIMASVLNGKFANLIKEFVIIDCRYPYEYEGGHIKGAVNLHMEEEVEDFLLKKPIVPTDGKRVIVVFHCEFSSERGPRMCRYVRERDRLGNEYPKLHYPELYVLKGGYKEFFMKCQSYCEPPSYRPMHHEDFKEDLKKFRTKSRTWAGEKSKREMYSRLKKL
Nature of the test: The compound was tested for its inhibitory activity against Cell division cycle 25A.

The target in test [2] is T2, M-phase inducer phosphatase 2 (Homo sapiens, UniProt P30305).
T2 sequence (P30305 whole entry): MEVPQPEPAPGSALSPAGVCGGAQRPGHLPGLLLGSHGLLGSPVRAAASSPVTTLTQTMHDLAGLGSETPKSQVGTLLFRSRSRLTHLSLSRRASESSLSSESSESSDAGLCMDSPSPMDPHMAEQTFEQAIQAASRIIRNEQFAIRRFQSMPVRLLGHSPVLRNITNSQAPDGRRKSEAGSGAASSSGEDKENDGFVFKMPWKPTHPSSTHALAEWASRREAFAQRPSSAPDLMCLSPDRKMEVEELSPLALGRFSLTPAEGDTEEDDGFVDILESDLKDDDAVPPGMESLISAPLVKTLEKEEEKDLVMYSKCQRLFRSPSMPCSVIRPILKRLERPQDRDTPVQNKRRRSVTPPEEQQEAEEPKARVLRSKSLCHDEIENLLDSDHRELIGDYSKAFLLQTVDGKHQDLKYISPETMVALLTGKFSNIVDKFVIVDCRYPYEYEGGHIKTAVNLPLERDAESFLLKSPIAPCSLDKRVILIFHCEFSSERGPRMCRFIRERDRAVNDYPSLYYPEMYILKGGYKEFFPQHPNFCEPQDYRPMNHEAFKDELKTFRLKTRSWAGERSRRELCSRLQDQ
Nature of the test: The compound was tested for its inhibitory activity against Cell division cycle 25B.

The subject of another test is SBC-5. Kind of test: The compound was tested for its inhibitory activity against SBC-5 human lung cancer cell line. In kind it is functional, cell-based.
Another test concerns HL-60. Kind of test: The compound was tested for its inhibitory activity against HL-60 human leukemia cell line. In kind it is functional, cell-based.

On to `CC1(CC(O)C2=CC(=O)OC2O)CCCCC1` (centres undefined), for which the half-inhibitory concentration (IC50) in test [1] was over 300 µM; in test [2] it was over 300 µM; in the test on SBC-5 it was 12 µM.

Turning to `C=C(C)CCC[C@@]1(C)CCC[C@H]2C1=CC[C@H](C)[C@]2(C)C[C@H](O)C1=CC(=O)O[C@@H]1O` (stereo in doubt), the values for the IC50 (in test [2]; in the test with SBC-5) were 19 µM and 16 µM, respectively.

On to `C=C(C)CCC[C@]1(C)CCC[C@@H]2C1=CC[C@@H](C)[C@@]2(C)C[C@@H](O)C1=CC(=O)O[C@H]1O` [DYSIDIOLIDE], for which the IC50 in test [2] worked out at 87 µM; in the test with HL-60, 7.1 µM; with SBC-5, 5.4 µM.

For `C=C(C)CCC[C@]1(C)CCC[C@@H]2C1=CC[C@@H](C)[C@]2(C)C[C@H](O)C1=CC(=O)OC1O` (some centres undefined), the values for the half-maximal inhibitory concentration (IC50) (in test [2]; with HL-60; with SBC-5) were 18 µM, 1 µM and 1.3 µM, respectively.

As for `C=C(C)CCC[C@]1(C)CCC[C@@H]2C1=CC[C@@H](C)[C@@H]2C[C@H](O)C1=CC(=O)OC1O` (some centres undefined), the 50% inhibitory concentration (IC50) turned out to be 15 µM in test [1], 27 µM in test [2] and 4.4 µM in the test on SBC-5.
